Measurements taken from paper PMC9851200, “Multiparameter phenotypic screening for endogenous TFEB and TFE3 translocation identifies novel chemical series modulating lysosome function” (Autophagy, 2022).

Key:
Type in all cases: binding
[1] = target: kinases (KINOMEscan panel) (Homo sapiens, UniProt Q06187); conditions: kinase BTK; NEW KINOMEscan
[2] = target: kinases (KINOMEscan panel) (Homo sapiens, UniProt P00519, M351T); conditions: kinase ABL1(M351T)-phosphorylated; NEW KINOMEscan
[3] = target: kinases (KINOMEscan panel) (Homo sapiens, UniProt P68400); conditions: CSNK2A1; NEW KINOMEscan
kinases (KINOMEscan panel) (Homo sapiens, UniProt P68400), sequence (P68400 whole entry): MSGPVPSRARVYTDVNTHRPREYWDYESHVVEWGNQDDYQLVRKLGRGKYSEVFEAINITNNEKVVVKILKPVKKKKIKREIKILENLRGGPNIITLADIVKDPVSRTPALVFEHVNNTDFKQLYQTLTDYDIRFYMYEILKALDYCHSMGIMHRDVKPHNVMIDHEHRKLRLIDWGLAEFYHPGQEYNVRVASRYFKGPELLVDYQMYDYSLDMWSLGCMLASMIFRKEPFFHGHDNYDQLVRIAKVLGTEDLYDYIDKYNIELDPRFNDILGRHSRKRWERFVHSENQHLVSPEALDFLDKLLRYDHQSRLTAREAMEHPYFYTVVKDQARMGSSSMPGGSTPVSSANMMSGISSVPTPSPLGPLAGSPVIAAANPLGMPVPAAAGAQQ

[4] = target: kinases (KINOMEscan panel) (Homo sapiens, UniProt P11362); conditions: kinase FGFR1; NEW KINOMEscan
kinases (KINOMEscan panel) (Homo sapiens, UniProt P11362), sequence (P11362 22-822): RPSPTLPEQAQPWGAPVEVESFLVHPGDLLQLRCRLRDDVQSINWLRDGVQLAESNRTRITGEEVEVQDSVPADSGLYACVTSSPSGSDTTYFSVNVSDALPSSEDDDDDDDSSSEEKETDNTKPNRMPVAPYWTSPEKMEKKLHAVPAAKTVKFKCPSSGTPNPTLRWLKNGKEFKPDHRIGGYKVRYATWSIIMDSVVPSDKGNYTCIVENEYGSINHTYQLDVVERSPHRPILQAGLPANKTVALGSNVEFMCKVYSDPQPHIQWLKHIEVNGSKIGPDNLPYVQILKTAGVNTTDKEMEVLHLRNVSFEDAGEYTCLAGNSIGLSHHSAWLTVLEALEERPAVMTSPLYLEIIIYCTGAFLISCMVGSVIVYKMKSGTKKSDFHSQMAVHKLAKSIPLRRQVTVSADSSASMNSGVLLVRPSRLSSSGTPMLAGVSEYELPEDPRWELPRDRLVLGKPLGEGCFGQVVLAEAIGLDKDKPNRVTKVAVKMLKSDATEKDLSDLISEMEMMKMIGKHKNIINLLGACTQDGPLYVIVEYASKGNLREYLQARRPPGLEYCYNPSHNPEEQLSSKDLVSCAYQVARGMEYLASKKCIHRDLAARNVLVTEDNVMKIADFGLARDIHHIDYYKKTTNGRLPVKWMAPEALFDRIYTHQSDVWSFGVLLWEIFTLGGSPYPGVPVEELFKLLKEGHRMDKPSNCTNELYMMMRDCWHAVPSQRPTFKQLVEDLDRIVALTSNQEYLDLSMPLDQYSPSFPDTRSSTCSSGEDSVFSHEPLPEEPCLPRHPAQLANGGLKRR

[5] = target: kinases (KINOMEscan panel) (Homo sapiens, UniProt P16591); conditions: FER; NEW KINOMEscan
kinases (KINOMEscan panel) (Homo sapiens, UniProt P16591), sequence (P16591 whole entry): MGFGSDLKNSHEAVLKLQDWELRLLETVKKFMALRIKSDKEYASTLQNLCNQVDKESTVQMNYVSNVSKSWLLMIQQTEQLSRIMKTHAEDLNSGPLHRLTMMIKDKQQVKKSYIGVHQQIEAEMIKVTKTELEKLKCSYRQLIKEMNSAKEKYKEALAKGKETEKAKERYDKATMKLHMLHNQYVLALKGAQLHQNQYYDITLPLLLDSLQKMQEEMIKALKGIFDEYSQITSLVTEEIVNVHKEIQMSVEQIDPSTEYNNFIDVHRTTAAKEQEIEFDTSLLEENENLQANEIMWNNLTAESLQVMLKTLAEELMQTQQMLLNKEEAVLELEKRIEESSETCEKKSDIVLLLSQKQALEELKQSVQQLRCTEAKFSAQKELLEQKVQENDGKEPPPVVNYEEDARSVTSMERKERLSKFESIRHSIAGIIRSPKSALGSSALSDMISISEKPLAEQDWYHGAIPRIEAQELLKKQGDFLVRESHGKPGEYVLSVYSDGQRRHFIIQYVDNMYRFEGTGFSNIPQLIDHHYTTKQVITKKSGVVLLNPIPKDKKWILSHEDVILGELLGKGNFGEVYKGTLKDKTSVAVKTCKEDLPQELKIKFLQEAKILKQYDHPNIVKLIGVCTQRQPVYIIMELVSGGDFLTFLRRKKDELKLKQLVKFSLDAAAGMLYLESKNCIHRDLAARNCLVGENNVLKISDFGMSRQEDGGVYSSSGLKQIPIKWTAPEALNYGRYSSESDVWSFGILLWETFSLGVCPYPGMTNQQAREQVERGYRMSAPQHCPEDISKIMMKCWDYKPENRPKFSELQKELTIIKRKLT

[6] = target: kinases (KINOMEscan panel) (Homo sapiens, UniProt Q9H0K1); conditions: kinase SIK2; NEW KINOMEscan
kinases (KINOMEscan panel) (Homo sapiens, UniProt Q9H0K1), sequence (Q9H0K1 whole entry): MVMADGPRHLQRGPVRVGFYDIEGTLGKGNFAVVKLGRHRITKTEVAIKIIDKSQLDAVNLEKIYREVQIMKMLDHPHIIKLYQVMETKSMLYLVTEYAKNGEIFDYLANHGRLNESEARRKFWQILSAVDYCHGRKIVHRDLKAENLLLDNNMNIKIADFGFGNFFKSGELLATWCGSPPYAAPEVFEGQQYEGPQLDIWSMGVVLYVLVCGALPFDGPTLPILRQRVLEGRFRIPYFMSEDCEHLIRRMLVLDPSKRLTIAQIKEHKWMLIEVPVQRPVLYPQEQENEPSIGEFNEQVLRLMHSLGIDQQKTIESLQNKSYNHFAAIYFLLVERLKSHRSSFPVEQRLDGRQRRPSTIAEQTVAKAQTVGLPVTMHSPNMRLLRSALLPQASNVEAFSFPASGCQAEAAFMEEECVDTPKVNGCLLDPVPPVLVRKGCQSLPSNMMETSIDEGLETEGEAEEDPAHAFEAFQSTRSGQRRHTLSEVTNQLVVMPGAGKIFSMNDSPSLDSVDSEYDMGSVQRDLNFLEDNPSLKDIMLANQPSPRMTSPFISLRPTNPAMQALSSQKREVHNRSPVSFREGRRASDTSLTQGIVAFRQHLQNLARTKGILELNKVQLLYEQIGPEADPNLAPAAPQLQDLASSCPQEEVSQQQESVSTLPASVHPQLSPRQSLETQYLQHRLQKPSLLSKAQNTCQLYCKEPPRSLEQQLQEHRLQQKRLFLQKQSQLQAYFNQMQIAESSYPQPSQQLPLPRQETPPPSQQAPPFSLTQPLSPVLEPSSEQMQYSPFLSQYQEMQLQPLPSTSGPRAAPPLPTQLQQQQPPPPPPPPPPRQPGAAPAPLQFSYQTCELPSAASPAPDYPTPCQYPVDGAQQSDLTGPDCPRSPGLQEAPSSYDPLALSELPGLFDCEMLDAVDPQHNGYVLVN

[7] = target: kinases (KINOMEscan panel) (Homo sapiens, UniProt Q8IU85); conditions: kinase CAMK1D; NEW KINOMEscan
kinases (KINOMEscan panel) (Homo sapiens, UniProt Q8IU85), sequence (Q8IU85 whole entry): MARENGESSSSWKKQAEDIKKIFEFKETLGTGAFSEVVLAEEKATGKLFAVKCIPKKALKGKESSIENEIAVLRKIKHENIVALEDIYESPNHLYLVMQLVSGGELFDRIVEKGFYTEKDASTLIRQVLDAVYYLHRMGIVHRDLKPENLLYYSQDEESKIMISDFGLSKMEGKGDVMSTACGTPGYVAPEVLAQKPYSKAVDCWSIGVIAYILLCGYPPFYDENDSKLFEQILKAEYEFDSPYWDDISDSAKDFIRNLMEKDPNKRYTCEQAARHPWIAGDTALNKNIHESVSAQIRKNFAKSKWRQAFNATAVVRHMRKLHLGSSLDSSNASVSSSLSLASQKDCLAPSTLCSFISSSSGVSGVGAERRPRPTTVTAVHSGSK

[8] = target: T1, kinases (KINOMEscan panel) (Homo sapiens, UniProt Q13237); conditions: PRKG2; NEW KINOMEscan
T1 sequence (Q13237 1-762): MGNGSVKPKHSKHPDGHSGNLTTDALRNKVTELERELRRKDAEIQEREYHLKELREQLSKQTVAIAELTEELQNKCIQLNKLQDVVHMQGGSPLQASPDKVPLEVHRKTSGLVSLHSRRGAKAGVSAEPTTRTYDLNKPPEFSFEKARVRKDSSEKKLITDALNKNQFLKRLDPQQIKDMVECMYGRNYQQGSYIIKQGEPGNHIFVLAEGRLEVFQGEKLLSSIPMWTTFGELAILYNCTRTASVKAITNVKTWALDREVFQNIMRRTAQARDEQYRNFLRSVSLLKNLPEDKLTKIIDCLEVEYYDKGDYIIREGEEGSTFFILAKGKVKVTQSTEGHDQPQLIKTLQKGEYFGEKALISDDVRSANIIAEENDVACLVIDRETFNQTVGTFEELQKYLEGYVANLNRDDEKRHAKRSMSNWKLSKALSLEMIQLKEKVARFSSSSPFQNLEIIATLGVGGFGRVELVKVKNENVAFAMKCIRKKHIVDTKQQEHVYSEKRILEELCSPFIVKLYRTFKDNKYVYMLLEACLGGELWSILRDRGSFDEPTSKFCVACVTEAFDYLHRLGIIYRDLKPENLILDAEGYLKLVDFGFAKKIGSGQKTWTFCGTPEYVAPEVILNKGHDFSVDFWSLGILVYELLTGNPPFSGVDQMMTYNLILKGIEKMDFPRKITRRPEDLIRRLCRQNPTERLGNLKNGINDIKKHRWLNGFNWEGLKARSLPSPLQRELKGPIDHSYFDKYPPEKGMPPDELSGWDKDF

[9] = target: T2, kinases (KINOMEscan panel) (Homo sapiens, UniProt Q09013); conditions: kinase DMPK; NEW KINOMEscan
T2 sequence (Q09013 1-629): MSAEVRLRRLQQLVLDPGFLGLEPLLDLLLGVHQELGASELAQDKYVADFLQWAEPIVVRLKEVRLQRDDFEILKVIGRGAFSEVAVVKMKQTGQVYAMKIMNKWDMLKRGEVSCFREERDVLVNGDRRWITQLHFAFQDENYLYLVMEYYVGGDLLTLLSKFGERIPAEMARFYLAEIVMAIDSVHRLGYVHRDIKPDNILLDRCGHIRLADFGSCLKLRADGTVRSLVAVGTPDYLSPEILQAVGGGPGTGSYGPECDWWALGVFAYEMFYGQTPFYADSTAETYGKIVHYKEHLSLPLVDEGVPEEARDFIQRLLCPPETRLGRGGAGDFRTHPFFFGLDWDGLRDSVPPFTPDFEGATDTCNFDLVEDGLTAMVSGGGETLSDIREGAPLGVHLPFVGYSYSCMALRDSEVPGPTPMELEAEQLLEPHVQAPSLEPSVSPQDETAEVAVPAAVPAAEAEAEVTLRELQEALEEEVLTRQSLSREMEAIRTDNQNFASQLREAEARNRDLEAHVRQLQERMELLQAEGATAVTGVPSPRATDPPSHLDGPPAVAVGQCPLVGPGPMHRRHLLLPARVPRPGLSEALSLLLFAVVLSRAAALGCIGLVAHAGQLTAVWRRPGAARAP

[10] = target: kinases (KINOMEscan panel) (Homo sapiens, UniProt P36888, D835V); conditions: NEW KINOMEscan
[11] = target: T3, kinases (KINOMEscan panel) (Homo sapiens, UniProt Q8TDC3); conditions: BRSK1; NEW KINOMEscan
T3 sequence (Q8TDC3 1-778): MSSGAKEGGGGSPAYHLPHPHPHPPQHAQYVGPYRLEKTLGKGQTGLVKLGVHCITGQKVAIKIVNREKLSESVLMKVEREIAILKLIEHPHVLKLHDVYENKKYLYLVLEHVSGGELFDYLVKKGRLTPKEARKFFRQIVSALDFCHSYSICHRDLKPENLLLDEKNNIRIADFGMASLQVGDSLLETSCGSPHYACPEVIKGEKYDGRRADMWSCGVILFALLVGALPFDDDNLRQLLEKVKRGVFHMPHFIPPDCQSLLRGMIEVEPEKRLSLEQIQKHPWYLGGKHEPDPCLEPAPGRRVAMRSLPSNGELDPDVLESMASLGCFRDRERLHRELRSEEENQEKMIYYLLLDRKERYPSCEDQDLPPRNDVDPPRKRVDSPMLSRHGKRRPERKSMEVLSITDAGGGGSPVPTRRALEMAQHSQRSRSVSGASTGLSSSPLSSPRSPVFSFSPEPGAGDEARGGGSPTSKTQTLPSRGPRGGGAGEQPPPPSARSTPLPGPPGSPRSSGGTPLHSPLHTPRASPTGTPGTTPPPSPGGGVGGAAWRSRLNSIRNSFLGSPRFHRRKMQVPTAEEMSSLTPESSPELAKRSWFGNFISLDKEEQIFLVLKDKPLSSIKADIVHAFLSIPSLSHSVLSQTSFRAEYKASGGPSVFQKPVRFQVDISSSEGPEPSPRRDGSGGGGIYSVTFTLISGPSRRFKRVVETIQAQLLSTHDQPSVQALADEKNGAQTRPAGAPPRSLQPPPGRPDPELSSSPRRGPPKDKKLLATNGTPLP

kinases (KINOMEscan panel) (Homo sapiens, UniProt Q06187), sequence (Q06187 whole entry): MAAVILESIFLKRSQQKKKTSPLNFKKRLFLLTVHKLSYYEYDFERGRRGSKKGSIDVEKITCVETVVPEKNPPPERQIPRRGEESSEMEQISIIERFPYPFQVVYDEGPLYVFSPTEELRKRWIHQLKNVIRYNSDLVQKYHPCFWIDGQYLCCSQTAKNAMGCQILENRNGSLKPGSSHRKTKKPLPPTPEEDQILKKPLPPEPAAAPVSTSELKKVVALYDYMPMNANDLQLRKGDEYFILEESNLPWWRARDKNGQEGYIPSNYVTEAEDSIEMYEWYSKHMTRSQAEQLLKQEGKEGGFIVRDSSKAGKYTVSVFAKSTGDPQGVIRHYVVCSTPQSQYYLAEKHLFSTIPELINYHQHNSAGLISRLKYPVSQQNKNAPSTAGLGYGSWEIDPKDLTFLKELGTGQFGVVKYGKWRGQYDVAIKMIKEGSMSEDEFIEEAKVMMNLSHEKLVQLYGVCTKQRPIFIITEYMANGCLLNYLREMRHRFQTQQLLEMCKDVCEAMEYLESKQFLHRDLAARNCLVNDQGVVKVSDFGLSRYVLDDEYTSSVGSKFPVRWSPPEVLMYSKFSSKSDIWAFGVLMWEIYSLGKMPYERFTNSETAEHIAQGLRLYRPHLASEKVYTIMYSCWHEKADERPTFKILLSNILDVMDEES

Compound | KINOMEscan BTK [1] | KINOMEscan ABL1(M351T)-phosphorylated [2] | KINOMEscan CSNK2A1 [3] | KINOMEscan FGFR1 [4] | KINOMEscan FER [5] | KINOMEscan SIK2 [6] | KINOMEscan CAMK1D [7] | KINOMEscan PRKG2 [8] | KINOMEscan DMPK [9] | KINOMEscan FLT3(D835V) [10] | KINOMEscan BRSK1 [11]
Cc1cccc(-c2nc(Nc3ccc4nn(C)cc4c3)c3ccccc3n2)n1 [NK167] | 0 | 0 | 0 | 15 | 0 | 0 | 0 | 5 | 0 | 19 | 0
Cc1cccc(-c2nc(N(C)c3ccc4ncsc4c3)c3ccccc3n2)n1 [NK-161] | 10 | 0 | 19 | 10 | 0 | 0 | 0 | 0 | 0 | 30 | 0
